From PMC4640888, “Discovery and Characterization of a Potent Interleukin-6 Binding Peptide with Neutralizing Activity In Vivo” (PLoS ONE, 2015)
Positions of bridges follow the written chain, without caps; N, C: chain ends. Non-standard residues stand in square brackets, D forms with d. Residues, ends and D or L forms follow the SMILES beside them. Phe(4-F) = N[C@@H](Cc1ccc(F)cc1)C(=O)O; Gla = N[C@@H](CC(C(=O)O)C(=O)O)C(=O)O; Cha = N[C@@H](CC1CCCCC1)C(=O)O

Assays:
[1] = Comparative PK of PEGylated peptides in rats; format: in vivo; details: rat; male rats, single SC dose 0.23 μmol/kg, plasma, LC-MS/MS, non-compartmental; read-out: PK half-life (t1/2) (converted)
Description: Male rats for pharmacokinetic studies were obtained from Harlan Laboratories (South Easton, MA. […] For all time points, blood samples were collected via retro-orbital eye bleed or exsanguination via abdominal aorta into tubes containing K2EDTA and were processed into plasma, which was placed in Eppendorf Protein LoBind tubes and stored frozen at approximately -70°C until quantitative bioanalysis.
The dosing solutions were formulated just prior to administration, in sterile 1X PBS with 0.1% BSA. Plasma sample extraction was performed by aliquoting 100 μL of each rat plasma sample into a standard 96-well plate. To each well, 400 μL of 5% formic acid in acetonitrile (containing 200 ng/mL of internal standard) was added. The plate was vortexed at high speed for approximately 10 min and then centrifuged for 15 min, 4700 x g at 4°C. Supernatant (425 μL) was transferred into a clean 96-well plate and evaporated to dryness under nitrogen at approximately 50°C. The extracts were then reconstituted in 50 μL of 1% formic acid in 60% acetonitrile.
Reconstituted extracts (5 μL) were analyzed by liquid chromatography-tandem mass spectrometry (LC-MS/MS) with positive electrospray ionization (QTrap 5500, AB SCIEX, Framingham, MA). […]

IL-6 = details: cited from earlier work
Description: The inhibitory potency of PN-2921 was assessed in human whole blood ...

[2] = biological target: IL-6-induced pSTAT3 in U937 cells (Homo sapiens, UniProt P05231); assay: pSTAT3 HTRF assay in U937 cells; format: cell-based
IL-6-induced pSTAT3 in U937 cells, sequence (P05231 30-212): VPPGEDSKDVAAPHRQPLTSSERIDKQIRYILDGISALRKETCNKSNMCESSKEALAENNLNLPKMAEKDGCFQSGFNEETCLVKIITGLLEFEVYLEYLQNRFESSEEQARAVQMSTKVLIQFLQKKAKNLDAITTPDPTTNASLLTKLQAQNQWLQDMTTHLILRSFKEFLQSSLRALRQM
Description: Peptides were serially diluted in medium containing 10% fetal bovine serum (FBS)/4% DMSO, then added to recombinant IL-6 (Xtal Biostructures, Inc., Natick, MA) at 28.2 ng/mL and the resulting plate was incubated at room temperature with shaking for 2.5 h at 37°C. […] After incubation for 12 min at 37°C the cells were centrifuged at 4°C (1400 rpm for 5 min) and the media was removed from the plates. Cells were placed on ice and 50 μL lysis buffer (Cisbio Assays, Bedford MA) was added. Phosphorylation of STAT3 was detected as described by the provider (Cisbio Assays). Briefly, cells were lysed for 30 min at room temperature and then 16 μL of lysates was added to a 384-well Proxiplate (Perkin Elmer, Waltham, MA). Anti-STAT3-d2+anti pSTAT-3-K detection cocktail (4μL; Cisbio Assays) was then added to the wells and the plate covered with a plate sealer and returned to 4°C overnight. Plates were then read with an Envision plate reader at ex 340, em 615 and 665 nm. […] These mixtures were then added to U937 cells for 15 min at 37°C and pSTAT3 was detected as described above.

IL-6/IL-6R = biological target: T1, IL-6/IL-6R (Homo sapiens, UniProt P05231); assay: IL-6 – IL-6R competition ELISA; format: binding; details: compared to PN-1454
T1 construct: purchased PeproTech
T1 sequence (P05231 30-212): as above
Description: Peptides were initially evaluated using a competitive enzyme-linked immunosorbent assay (ELISA). High binding 96-well microtiter plates (half-area, Corning Life Sciences, Corning, NY)) were coated with 0.1 μg per well of IL-6R (PeproTech, Rocky Hill, NJ) overnight at 4°C. The wells were then blocked for 2 h with a 1% BSA (Sigma, St. Louis, MO) solution containing 0.1% Tween-20 (Amresco, Solon, OH) and subsequently washed with wash buffer (PBS containing 0.1% Tween-20). Peptides were serially diluted in assay buffer (0.1% BSA, 0.05% Tween-20 in PBS) and incubated with a 50 pM biotinylated IL-6 (PeproTech) for 30 min at room temperature. This mixture was then transferred to an assay plate, and the plate incubated for 1 h. The plate was washed with wash buffer, and presence of bound IL-6 detected through addition of streptavidin poly-horseradish peroxidase conjugate (Pierce, Rockford IL). Plates were developed using a TMB substrate kit (Pierce) and stopped with 2N H2SO4. Inhibition of complex formation was measured as a reduction in absorbance at 450 nm.

CC[C@H](C)[C@@H]1NC(=O)[C@@H](NC(=O)[C@H](CC(=O)O)NC(=O)[C@H](CC2CCCCC2)NC(=O)[C@H](CC(=O)O)NC(=O)[C@H](CO)NC(=O)[C@H](CCC(N)=O)NC(C)=O)CSSC[C@@H](C(=O)N[C@@H](CCC(=O)O)C(=O)O)NC(=O)[C@H](CCC(=O)O)NC(=O)[C@H](CC(=O)O)NC(=O)[C@H](CC(N)=O)NC(=O)[C@H]([C@@H](C)CC)NC(=O)[C@H](CCCCN)NC(=O)[C@H](CC(C(=O)O)C(=O)O)NC(=O)[C@H]([C@@H](C)CC)NC(=O)[C@H](CCCCN)NC(=O)[C@H](CCC(=O)O)NC(=O)[C@H](Cc2c[nH]c3ccccc23)NC(=O)[C@H](CCCNC(=N)N)NC(=O)[C@H](CCC(N)=O)NC(=O)[C@H](CCC(=O)O)NC(=O)[C@H](CCC(=O)O)NC(=O)[C@H]([C@@H](C)O)NC(=O)[C@H](CC(C)C)NC(=O)[C@H](CC(N)=O)NC(=O)[C@@H]2CCCN2C(=O)[C@H](CC(=O)O)NC(=O)[C@H](CC(C)C)NC(=O)[C@H](Cc2ccc(F)cc2)NC(=O)[C@H](C)NC(=O)[C@H](CCC(=O)O)NC(=O)[C@H](CC(C)C)NC(=O)[C@H](CC(C)C)NC(=O)[C@H](CCCNC(=N)N)NC(=O)[C@H](Cc2c[nH]cn2)NC1=O [PN-2365] (Ac-QSD[Cha]DCIHRLLEA[Phe(4-F)]LDPNLTEEQRWEKI[Gla]KINDECE-OH; disulfide 6-35)
half-life [1]: 3.4 h

siltuximab: monoclonal antibody specific for IL-6
potency (IL-6): pM range

CC[C@H](C)[C@@H]1NC(=O)[C@@H](NC(=O)[C@H](CC(=O)O)NC(=O)[C@H](CC2CCCCC2)NC(=O)[C@H](CC(=O)O)NC(=O)[C@H](CO)NC(=O)[C@H](CCC(N)=O)NC(C)=O)CSSC[C@@H](C(=O)N[C@@H](CCC(=O)O)C(=O)O)NC(=O)[C@H](CCC(=O)O)NC(=O)[C@H](CC(=O)O)NC(=O)[C@H](CC(N)=O)NC(=O)[C@H]([C@@H](C)CC)NC(=O)[C@H](CCCCN)NC(=O)[C@H](CC(C(=O)O)C(=O)O)NC(=O)[C@H]([C@@H](C)CC)NC(=O)[C@H](CCCNC(=N)N)NC(=O)[C@H](CCC(=O)O)NC(=O)[C@H](Cc2c[nH]c3ccccc23)NC(=O)[C@H](CCCNC(=N)N)NC(=O)[C@H](CCC(N)=O)NC(=O)[C@H](CCC(=O)O)NC(=O)[C@H](CCC(=O)O)NC(=O)[C@H]([C@@H](C)O)NC(=O)[C@H](CC(C)C)NC(=O)[C@H](CC(N)=O)NC(=O)[C@@H]2CCCN2C(=O)[C@H](CC(=O)O)NC(=O)[C@H](CC(C)C)NC(=O)[C@H](Cc2ccc(F)cc2)NC(=O)[C@H](C)NC(=O)[C@H](CCC(=O)O)NC(=O)[C@H](CC(C)C)NC(=O)[C@H](CC(C)C)NC(=O)[C@H](CCCNC(=N)N)NC(=O)[C@H](Cc2c[nH]cn2)NC1=O [PN-2519] (Ac-QSD[Cha]DCIHRLLEA[Phe(4-F)]LDPNLTEEQRWERI[Gla]KINDECE-OH; disulfide 6-35)
fold improvement in cell-based activity ([2]; compared to PN-1974, U937 pSTAT3): ~ 1000 fold
antagonist activity in the IL-6 pSTAT3 assay in U937 cells (Fig 2C) ([2]; effect of PEG molecular weight, PEGylation at position 29): comparable

CC[C@H](C)[C@@H]1NC(=O)[C@H](CCCCN)NC(=O)CNC(=O)[C@H](Cc2c[nH]c3ccccc23)NC(=O)[C@H](CCCNC(=N)N)NC(=O)[C@H](CCC(N)=O)NC(=O)[C@H](CCC(=O)O)NC(=O)[C@H](CO)NC(=O)[C@H](CC(N)=O)NC(=O)[C@H](CC(C)C)NC(=O)[C@H](CC(N)=O)NC(=O)[C@@H]2CCCN2C(=O)[C@H](CC(=O)O)NC(=O)[C@H](CC(C)C)NC(=O)[C@H](Cc2ccccc2)NC(=O)[C@H](C)NC(=O)[C@H](CCC(=O)O)NC(=O)[C@H](CC(C)C)NC(=O)[C@H](CC(C)C)NC(=O)[C@H](CCCNC(=N)N)NC(=O)[C@H](CCCNC(=N)N)NC(=O)[C@H]([C@@H](C)CC)NC(=O)[C@@H](NC(=O)[C@H](CCC(N)=O)NC(=O)[C@H](CC(C)C)NC(=O)[C@H](CC(N)=O)NC(=O)[C@H](Cc2ccccc2)NC(C)=O)CSSC[C@@H](C(N)=O)NC(=O)[C@H](CC(=O)O)NC(=O)[C@H](CC(=O)O)NC(=O)[C@H](CC(N)=O)NC(=O)[C@H]([C@@H](C)CC)NC(=O)[C@H](CO)NC(=O)[C@H](CC(=O)O)NC1=O [PN-1484] (Ac-FNLQCIRRLLEAFLDPNLNSEQRWGKIDSINDDC-NH2; disulfide 5-34 (inferred))
fold improvement in IC50 in the competitive ELISA (IL-6/IL-6R): ~ 20 fold
